This note sets out measurements from patent publication US20120101100A1 (priority 2008, published 2012).

For this test, the target named is S. aureus GyrB ATPase (Staphylococcus aureus, UniProt P0A0K8). As to the kind of experiment: S. aureus (SAU) GyrB ATPase inhibition, malachite green phosphate detection (E. coli GyrA + S. aureus GyrB). In kind it is biochemical. As to conditions: compound concentration of 1.0 μM unless otherwise noted; average value where assay was carried out more than once; read-out: S. aureus (SAU) GyrB ATPase % Inhibition. In a few lines: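 Phosphate from ATP hydrolysis (500 μM ATP) read as malachite green/molybdate absorbance at 650 nm after acid quench. Reaction: 1.25 nM S. aureus GyrB plus 1.25 nM E. coli GyrA, sheared DNA, Hepes pH 7.5 with Mg2+. IC50 fitted over 10 concentrations, normalised to DMSO (2%) and novobiocin (2 μM) controls.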
Chain of S. aureus GyrB ATPase (P0A0K8 whole entry): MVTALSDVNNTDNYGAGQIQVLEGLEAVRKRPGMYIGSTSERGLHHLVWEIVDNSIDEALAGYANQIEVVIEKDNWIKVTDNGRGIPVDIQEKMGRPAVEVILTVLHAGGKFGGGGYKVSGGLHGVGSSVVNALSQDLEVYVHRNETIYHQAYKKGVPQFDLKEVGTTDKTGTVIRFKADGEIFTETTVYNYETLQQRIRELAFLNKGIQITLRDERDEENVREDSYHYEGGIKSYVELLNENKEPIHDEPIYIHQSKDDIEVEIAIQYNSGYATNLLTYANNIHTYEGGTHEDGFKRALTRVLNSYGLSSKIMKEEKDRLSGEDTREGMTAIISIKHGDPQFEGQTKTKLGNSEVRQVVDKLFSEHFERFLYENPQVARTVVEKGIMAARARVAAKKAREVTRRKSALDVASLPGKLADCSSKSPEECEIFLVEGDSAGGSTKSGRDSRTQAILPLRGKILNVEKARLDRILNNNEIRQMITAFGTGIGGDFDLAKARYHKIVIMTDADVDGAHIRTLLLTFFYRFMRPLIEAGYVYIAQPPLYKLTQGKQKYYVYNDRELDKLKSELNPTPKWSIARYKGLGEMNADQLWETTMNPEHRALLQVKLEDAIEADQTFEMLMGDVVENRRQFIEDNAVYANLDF
Chain of S. aureus GyrB ATPase (P0AES4 whole entry, further chain): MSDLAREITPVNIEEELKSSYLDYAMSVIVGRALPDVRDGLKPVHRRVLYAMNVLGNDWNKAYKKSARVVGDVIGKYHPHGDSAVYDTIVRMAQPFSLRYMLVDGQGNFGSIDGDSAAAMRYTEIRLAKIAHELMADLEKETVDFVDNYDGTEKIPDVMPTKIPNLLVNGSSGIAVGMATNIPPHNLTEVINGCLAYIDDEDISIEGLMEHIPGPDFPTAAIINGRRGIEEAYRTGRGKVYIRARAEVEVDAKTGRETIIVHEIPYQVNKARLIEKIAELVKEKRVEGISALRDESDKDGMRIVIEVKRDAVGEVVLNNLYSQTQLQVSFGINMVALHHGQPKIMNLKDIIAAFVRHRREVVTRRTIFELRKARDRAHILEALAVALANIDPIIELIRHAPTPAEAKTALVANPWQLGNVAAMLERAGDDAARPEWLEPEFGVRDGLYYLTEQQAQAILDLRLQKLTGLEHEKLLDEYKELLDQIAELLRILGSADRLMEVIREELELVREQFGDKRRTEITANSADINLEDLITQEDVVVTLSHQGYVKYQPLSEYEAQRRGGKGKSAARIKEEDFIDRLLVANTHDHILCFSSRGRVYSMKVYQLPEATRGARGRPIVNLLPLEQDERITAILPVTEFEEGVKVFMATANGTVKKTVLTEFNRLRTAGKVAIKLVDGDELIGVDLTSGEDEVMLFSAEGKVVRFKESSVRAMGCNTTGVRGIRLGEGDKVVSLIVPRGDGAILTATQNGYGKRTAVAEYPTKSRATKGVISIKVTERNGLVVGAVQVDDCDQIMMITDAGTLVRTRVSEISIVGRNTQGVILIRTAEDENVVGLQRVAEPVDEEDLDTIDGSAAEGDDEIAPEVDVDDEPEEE

As to `CCNC(=O)Nc1cc(-c2nc(-c3ccccc3)cs2)c(-c2cc(OC(C)C)nc(-c3nnc(C)o3)c2)cn1` [Example 82, 1-ethyl-3-(2′-isopropoxy-6′-(5-methyl-1,3,4-oxadiazol-2-yl)-4-(4-phenylthiazol-2-yl)-3,4′-bipyridin-6-yl)urea], the inhibition (as a rule, the drop in the measured response relative to a control, in per cent) at 1 µM stood at 86%.

Consider `CCNC(=O)Nc1cc(-c2nc(C(F)(F)F)cs2)c(-c2cc(OCC3CC3)nc(-c3n[nH]c(=O)o3)c2)cn1` [Example 83, 1-(2′-(cyclopropylmethoxy)-6′-(5-oxo-4,5-dihydro-1,3,4-oxadiazol-2-yl)-4-(4-(trifluoromethyl)thiazol-2-yl)-3,4′-bipyridin-6-yl)-3-ethylurea], for which the inhibition at 1 µM came out at 94%.

Consider `CCNC(=O)Nc1cc(-c2nc(-c3ccccc3)cs2)c(-c2cc(OCC3CC3)nc(-c3n[nH]c(=O)o3)c2)cn1` [Example 85, 1-(2′-(cyclopropylmethoxy)-6′-(5-oxo-4,5-dihydro-1,3,4-oxadiazol-2-yl)-4-(4-phenylthiazol-2-yl)-3,4′-bipyridin-6-yl)-3-ethylurea], for which the inhibition at 1 µM came out at 93%. Under `CCNC(=O)Nc1cc(-c2nc(C(F)(F)F)cs2)c(-c2cc(-c3n[nH]c(=O)o3)nc(N3CCOCC3)c2)cn1` [Example 86, 1-ethyl-3-(2′-morpholino-6′-(5-oxo-4,5-dihydro-1,3,4-oxadiazol-2-yl)-4-(4-(trifluoromethyl)thiazol-2-yl)-3,4′-bipyridin-6-yl)urea] stands 97%; under `CCNC(=O)Nc1cc(-c2nc(C(F)(F)F)cs2)c(-c2cc(-c3nnc(C)o3)nc(N3CCOCC3)c2)cn1` [Example 87, 1-ethyl-3-(2′-morpholino-6′-(5-methyl-1,3,4-oxadiazol-2-yl)-4-(4-(trifluoromethyl)thiazol-2-yl)-3,4′-bipyridin-6-yl)urea], 99%; under `CCNC(=O)Nc1cc(-c2nc(-c3ccccc3)cs2)c(-c2cc(-c3n[nH]c(=O)o3)nc(N3CCOCC3)c2)cn1` [Example 88], 94%. On to `CCNC(=O)Nc1cc(-c2nc(-c3ccccc3)cs2)c(-c2cc(-c3nnc(C)o3)nc(N3CCOCC3)c2)cn1` [Example 89, 1-ethyl-3-(2′-(5-methyl-1,3,4-oxadiazol-2-yl)-6′-morpholino-4-(4-phenylthiazol-2-yl)-3,4′-bipyridin-6-yl)urea], for which the inhibition at 1 µM came out at 87%. With `CCNC(=O)Nc1cc(-c2nc(C(F)(F)F)cs2)c(-c2cc(OC3CCN(C)CC3)nc(-c3n[nH]c(=O)o3)c2)cn1` [Example 90, 1-ethyl-3-(2′-(1-methylpiperidin-4-yloxy)-6′-(5-oxo-4,5-dihydro-1,3,4-oxadiazol-2-yl)-4-(4-(trifluoromethyl)thiazol-2-yl)-3,4′-bipyridin-6-yl)urea], the inhibition at 1 µM worked out at 116%.

`CCNC(=O)Nc1cc(-c2nc(C(F)(F)F)cs2)c(-c2cc(OCCN(C)C)nc(-c3n[nH]c(=O)o3)c2)cn1` [Example 92, 1-(2′-(2-(dimethylamino)ethoxy)-6′-(5-oxo-4,5-dihydro-1,3,4-oxadiazol-2-yl)-4-(4-(trifluoromethyl)thiazol-2-yl)-3,4′-bipyridin-6-yl)-3-ethylurea]: the inhibition at 1 µM was 104%. Under `CCNC(=O)Nc1cc(-c2nc(-c3ccccc3)cs2)c(-c2cncc(-c3nnc(C)o3)c2)cn1` [Example 94, 1-ethyl-3-(5′-(5-methyl-1,3,4-oxadiazol-2-yl)-4-(4-phenylthiazol-2-yl)-3,3′-bipyridin-6-yl)urea] stands 98%. Regarding `CCNC(=O)Nc1cc(-c2nc(-c3ccccc3)cs2)c(-c2ccnc(-c3n[nH]c(=O)o3)c2)cn1` [Example 95, 1-ethyl-3-(2′-(5-oxo-4,5-dihydro-1,3,4-oxadiazol-2-yl)-4-(4-phenylthiazol-2-yl)-3,4′-bipyridin-6-yl)urea], the inhibition at 1 µM turned out to be 99%.

As to `CCNC(=O)Nc1cc(-c2nc(-c3ccccc3)cs2)c(-c2ccnc(-c3nnc(C)o3)c2)cn1` [Example 96, 1-ethyl-3-(2′-(5-methyl-1,3,4-oxadiazol-2-yl)-4-(4-phenylthiazol-2-yl)-3,4′-bipyridin-6-yl)urea], the inhibition at 1 µM came to 100%.

On to `CCNC(=O)Nc1cc(-c2nc(-c3ccccc3)cs2)c(-c2nc(-c3ncnn3C)c(-c3nnc(C)o3)s2)cn1` [Example 97, 1-ethyl-3-(5-(5-(5-methyl-1,3,4-oxadiazol-2-yl)-4-(1-methyl-1H-1,2,4-triazol-5-yl)thiazol-2-yl)-4-(4-phenylthiazol-2-yl)pyridin-2-yl)urea], for which the inhibition at 1 µM was found to be 99%. The same measure for `CCNC(=O)Nc1cc(-c2nc(-c3ccccc3)cs2)c(-c2nc(-c3ncccn3)c(-c3nnc(C)o3)s2)cn1` [Example 98, 1-ethyl-3-(5-(5-(5-methyl-1,3,4-oxadiazol-2-yl)-4-(pyrimidin-2-yl)thiazol-2-yl)-4-(4-phenylthiazol-2-yl)pyridin-2-yl)urea]: 100%; for `CCNC(=O)Nc1cc(-c2nc(C(F)(F)F)cs2)c(-c2cc(-c3n[nH]c(=O)o3)cnc2OCCN2CCN(C)CC2)cn1` [Example 99, 1-Ethyl-3-(2′-(2-(4-methylpiperazin-1-yl)ethoxy)-5′-(5-oxo-4,5-dihydro-1,3,4-oxadiazol-2-yl)-4-(4-(trifluoromethyl)thiazol-2-yl)-3,3′-bipyridin-6-yl)urea]: 97%. For `CCNC(=O)Nc1cc(-c2nc(C(F)(F)F)cs2)c(-c2cc(-c3n[nH]c(=O)o3)cnc2OCCN(C)C)cn1` [Example 100, 1-(2′-(2-(Dimethylamino)ethoxy)-5′-(5-oxo-4,5-dihydro-1,3,4-oxadiazol-2-yl)-4-(4-(trifluoromethyl)thiazol-2-yl)-3,3′-bipyridin-6-yl)-3-ethylurea], the inhibition at 1 µM is 98%. `CCNC(=O)Nc1cc(-c2nc(C(F)(F)F)cs2)c(-c2cc(-c3n[nH]c(=O)o3)cnc2OC)cn1` [Example 101, 1-Ethyl-3-(2′-methoxy-5′-(5-oxo-4,5-dihydro-1,3,4-oxadiazol-2-yl)-4-(4-(trifluoromethyl)thiazol-2-yl)-3,3′-bipyridin-6-yl)urea]: the inhibition at 1 µM stood at 97%. On to `CCNC(=O)Nc1cc(-c2nc(C(F)(F)F)cs2)c(-c2cc(-c3n[nH]c(=O)o3)cnc2OCCN2CCOCC2)cn1` [Example 102, 1-Ethyl-3-(2′-(2-morpholinoethoxy)-5′-(5-oxo-4,5-dihydro-1,3,4-oxadiazol-2-yl)-4-(4-(trifluoromethyl)thiazol-2-yl)-3,3′-bipyridin-6-yl)urea], for which the inhibition at 1 µM stood at 92%. Under `CCNC(=O)Nc1cc(-c2nc(-c3ccccn3)cs2)c(-c2cncc(-c3nnc(C)o3)c2)cn1` [Example 104, 1-Ethyl-3-(5′-(5-methyl-1,3,4-oxadiazol-2-yl)-4-(4-(pyridin-2-yl)thiazol-2-yl)-3,3′-bipyridin-6-yl)urea] stands 98%.

Consider `CCNC(=O)Nc1cc(-c2nc(-c3ccccn3)cs2)c(-c2cncc(S(N)(=O)=O)c2)cn1` [Example 105, 6′-(3-Ethylureido)-4′-(4-(pyridin-2-yl)thiazol-2-yl)-3,3′-bipyridine-5-sulfonamide], for which the inhibition at 1 µM was 101%.

As to `CCNC(=O)Nc1cc(-c2nc(-c3ccccn3)cs2)c(-c2ccnc(-c3n[nH]c(=O)o3)c2)cn1` [Example 106, 1-Ethyl-3-(2′-(5-oxo-4,5-dihydro-1,3,4-oxadiazol-2-yl)-4-(4-(pyridin-2-yl)thiazol-2-yl)-3,4′-bipyridin-6-yl)urea], the inhibition at 1 µM came out at 102%.

`CCNC(=O)Nc1cc(-c2cnn(CC(C)C)c2)c(-c2cncc(-c3n[nH]c(=O)o3)c2)cn1` [Example 107, 1-Ethyl-3-(4-(1-isobutl-1H-pyrazol-4-yl)-5′-(5-oxo-4,5-dihydro-1,3,4-oxadiazol-2-yl)-3,3′-bipyridin-6-yl)urea]: the inhibition at 1 µM came to 97%. The same measure for `CCNC(=O)Nc1cc(-c2ccc(N3CCOCC3)cc2)c(-c2cncc(-c3n[nH]c(=O)o3)c2)cn1` [Example 108, 1-Ethyl-3-(4-(4-morpholinophenyl)-5′-(5-oxo-4,5-dihydro-1,3,4-oxadiazol-2-yl)-3,3′-bipyridin-6-yl)urea]: 103%; for `CCNC(=O)Nc1cc(-c2nc(C(F)(F)F)cs2)c(-c2cc(-c3n[nH]c(=O)o3)cnc2OC2CCNCC2)cn1` [Example 109, 1-Ethyl-3-{5′-(5-oxo-4,5-dihydro-1,3,4-oxadiazol-2-yl)-2′-(piperidin-4-yloxy)-4-[4-(trifluoromethyl)-1,3-thiazol-2-yl]-3,3′-bipyridin-6-yl}urea]: 98%; for `CCNC(=O)Nc1cc(-c2nc(C(F)(F)F)cs2)c(-c2cc(-c3nnc(C)o3)cnc2OC2CCNCC2)cn1` [Example 110, 1-Ethyl-3-{5′-(5-methyl-1,3,4-oxadiazol-2-yl)-2′-(piperidin-4-yloxy)-4-[4-(trifluoromethyl)-1,3-thiazol-2-yl]-3,3′-bipyridin-6-yl}urea]: 95%.

With `CCNC(=O)Nc1cc(-c2nc(C(F)(F)F)cs2)c(-c2cc(-c3n[nH]c(=O)o3)cnc2OCCC(=O)O)cn1` [Example 111, 3-({6′-[(ethylcarbamoyl)amino]-5-(5-oxo-4,5-dihydro-1,3,4-oxadiazol-2-yl)-4′-[4-(trifluoromethyl)-1,3-thiazol-2-yl]-3,3′-bipyridin-2-yl}oxy)propanoic acid], the inhibition at 1 µM amounted to 106%.

For `CCNC(=O)Nc1cc(-c2nc(C(F)(F)F)cs2)c(-c2cc(-c3n[nH]c(=O)o3)cnc2OCC2CCOCC2)cn1` [Example 112, 1-Ethyl-3-{5′-(5-oxo-4,5-dihydro-1,3,4-oxadiazol-2-yl)-2′-(tetrahydro-2H-pyran-4-ylmethoxy)-4-[4-(trifluoromethyl)-1,3-thiazol-2-yl]-3,3′-bipyridin-6-yl}urea], the inhibition at 1 µM is 95%. The same measure for `CCNC(=O)Nc1cc(-c2nc(C(F)(F)F)cs2)c(-c2cc(-c3nnc(C)o3)cnc2OCC2CCOCC2)cn1` [Example 113, 1-Ethyl-3-{5′-(5-methyl-1,3,4-oxadiazol-2-yl)-2′-(tetrahydro-2H-pyran-4-ylmethoxy)-4-[4-(trifluoromethyl)-1,3-thiazol-2-yl]-3,3′-bipyridin-6-yl}urea]: 45%.
